Results as given in patent US10703777B2, “Miniature protein scaffolds and methods for use thereof” (New York University, priority 2017, dated 2020).
Entries after “also recorded” stand apart in the source; their conditions may differ.

Columns and labels:
Type in all cases: physicochemical
[1] = Guanidinium chloride (GnCl) titration monitored by near-UV CD at 280 nm; conditions: standard aqueous conditions at 25° C.; extrapolated from variable GnCl concentration near-UV CD data (280 nm), 50 μM protein
Method: CD spectra were collected using an Aviv (Lakewood, N.J.) stopped flow CD Spectropolarimeter Model 202SF. The far-UV (190-260 nm) CD spectra were obtained using a 1 mm path length cell and in 10 mM PBS buffer at a pH of 7.5 at 100 μM protein concentrations. The near-UV (245-320 nm) CD spectra were obtained using a 1 cm path length cell and in 10 mM PBS buffer at a pH of 7.5 at 50 μM concentrations. The consensus CD spectra were established as the Gaussian weighted average of 40 scans with evaluation of ellipticity every 0.5 nm, each having an averaging time of 0.5 s. […] Concentrations of protein stock solutions for conversion of millidegrees to mean residue ellipticity (MRE) were determined by UV absorbance at 280 nm using the standard extinction coefficients for the tryptophan (5690 M-1 cm-1), tyrosine (1280M-1 cm-1), and disulfide-bridged cysteine (125M-1 cm-1) chromophores in 6 M GnCl. […]
Secondary and tertiary structure content of the mini-protein was initially evaluated using circular dichroism (CD) spectroscopy (FIG. 4A,B). In the near-UV (260-320 nm) CD spectrum, ellipticity can arise from indole and phenol absorbance bands when tryptophan or tyrosine side chains are present in an asymmetric environment. […]

[2] = Sedimentation equilibrium analysis; conditions: concentration of 1.8 mM at 4° C.
Method: Sedimentation equilibrium measurements were carried out on a Beckman (Brea, Calif.) XL-A analytical ultracentrifuge equipped with absorption optics and an An-60 Ti rotor. Analysis was conducted at rotor speeds of 45,000 and 48,000 rpm at 4° C. Data were acquired at two wavelengths per rotor speed setting and processed globally for the best fit to a single-species model of absorbance versus radial distance. Solvent density and protein partial specific volume were calculated according to solvent and protein composition, respectively.
The native sequence on which to initiate the mini-protein design was chosen based on two primary criteria. First, the present inventors sought a sequence containing a loop featuring a β-hairpin, which could be nucleated using a D-Pro-Gly motif (2, 7). Most of the loop regions observed in WSXWS motifs are lacking in canonical forms of secondary structure that could be enforced with rational peptide design (FIG. 2). Second, the present inventors wanted a sequence containing three arginine residues on the β-strand portion of the fold composing the cation-π interaction network. The only sequence meeting these two criteria was that of the WSXWS motif found in IL3RB (UniprotID: P32927). […] The apparent molecular mass was within 10% of that calculated for an ideal monomer, with no systematic deviation of the residuals. […]

[3] = Near-UV CD thermal melts monitoring mean residue ellipticity at 280 nm; conditions: 10 mM PBS buffer pH 7.5, elevated temperatures
Method: FIGS. 6A-6B. Near-UV CD thermal melts for the TrpPlexus cation-π interation network mutants. (6A) Schematic of the cation-π network of TrpPlexus detailing variable amino acid positions 1, 3, and 5 in the mutant sequences. (6B) Near-UV CD thermal melts for TrpPlexus (“RRR”) and each mutant monitoring mean residue ellipticity at 280 nm (50 μM protein, 1 cm path length, 10 mM PBS buffer pH 7.5). Inset compares side-chain functionalities of the arginine (R), lysine (K), and L-citrulline (Cit) residues.
CD spectra were collected using an Aviv (Lakewood, N.J.) stopped flow CD Spectropolarimeter Model 202SF. […] Concentrations of protein stock solutions for conversion of millidegrees to mean residue ellipticity (MRE) were determined by UV absorbance at 280 nm using the standard extinction coefficients for the tryptophan (5690 M-1 cm-1), tyrosine (1280M-1 cm-1), and disulfide-bridged cysteine (125M-1 cm-1) chromophores in 6 M GnCl. […]
To explore the influence of cationic groups on fold stability, mutants were designed that replaced particular guanidinyl (arginine) side chain groups with either amino (lysine) cations or charge-neutral urea (L-citrulline) groups (FIG. 6). The near-UV CD signal monitored at 280 nm provides a metric of relative tertiary structure content (FIG. 6B). […]

## RVRVRTSRpGYNGTWSEWS [TrpPlexus]
[1]
  ΔG° for folding: approximately −6.7 kcal/mol
[2]
  oligomeric state by sedimentation equilibrium: monomeric
[3]
  near-UV CD signal as a function of temperature (thermostability): slightly increase in strength at elevated temperatures, indicating thermostability; also recorded: weakly sigmoidal transitions to stronger ellipticities at elevated temperatures
